Target: TBK1 (Homo sapiens (Human), UniProt Q9UHD2)
Experiment: TBK1 low ATP kinase assay (in vitro assay 1)
Format: biochemical
Conditions: in vitro assay 1, read-out: TBK1 low ATP kinase assay IC50

TBK1, sequence (Q9UHD2 whole entry): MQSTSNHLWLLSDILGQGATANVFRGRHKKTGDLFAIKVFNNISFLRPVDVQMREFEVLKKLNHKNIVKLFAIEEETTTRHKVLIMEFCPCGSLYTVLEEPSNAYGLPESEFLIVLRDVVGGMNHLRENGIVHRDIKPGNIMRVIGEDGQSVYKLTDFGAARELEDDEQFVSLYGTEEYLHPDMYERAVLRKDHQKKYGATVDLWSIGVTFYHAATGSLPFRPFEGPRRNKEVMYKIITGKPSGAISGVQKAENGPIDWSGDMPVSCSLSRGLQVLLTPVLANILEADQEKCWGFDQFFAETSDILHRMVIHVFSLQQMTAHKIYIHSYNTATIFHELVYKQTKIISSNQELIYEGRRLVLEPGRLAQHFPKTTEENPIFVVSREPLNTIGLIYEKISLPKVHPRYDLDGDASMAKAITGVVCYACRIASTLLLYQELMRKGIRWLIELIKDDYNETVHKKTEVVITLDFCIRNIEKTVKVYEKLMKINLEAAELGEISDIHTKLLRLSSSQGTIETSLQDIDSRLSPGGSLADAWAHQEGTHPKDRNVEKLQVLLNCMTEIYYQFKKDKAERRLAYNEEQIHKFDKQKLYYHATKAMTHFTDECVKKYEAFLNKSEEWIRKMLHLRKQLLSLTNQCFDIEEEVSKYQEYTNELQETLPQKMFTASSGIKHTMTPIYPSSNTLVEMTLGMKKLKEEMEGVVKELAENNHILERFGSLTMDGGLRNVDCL

IC50 [µM] | SMILES
0.0211 | CC(c1ccnc(Nc2nc3ccc(-c4cc(OCC(F)(F)C(F)(F)F)ncn4)cc3[nH]2)c1)N1CCN(C(=O)C2CC2)CC1 (single isomer, unassigned) [Example 166.03, cyclopropyl(4-{(1R or 1S)-1-[2-({6-[6-(2,2,3,3,3-pentafluoropropoxy)pyrimidin-4-yl]-1H-benzimidazol-2-yl}amino)pyridin-4-yl]ethyl}piperazin-1-yl)methanone]
0.0185 | Cc1cc(-c2ccc3nc(Nc4cc(CN5CCN(C(=O)C6CCC6)CC5)ccn4)[nH]c3c2)ncn1 [Example 30.01.02, cyclobutyl{4-[(2-{[6-(6-methylpyrimidin-4-yl)-1H-benzimidazol-2-yl]amino}pyridin-4-yl)methyl]piperazin-1-yl}methanone]
0.0052 | COc1c(-c2ccc3nc(Nc4cc(C(C)N5CCN(C(=O)C6(C(F)(F)F)CC6)CC5)ccn4)[nH]c3c2)ncnc1N(C)C (single isomer, unassigned) [Example 107.02.04, (4-{(1R or 1S)-1-[2-({6-[6-(dimethylamino)-5-methoxypyrimidin-4-yl]-1H-benzimidazol-2-yl}amino)pyridin-4-yl]ethyl}piperazin-1-yl)[1-(trifluoromethyl)cyclopropyl]methanone]
0.0459 | COCC1CCN(S(=O)(=O)N2CCN(Cc3ccnc(Nc4nc5ccc(-c6ncncc6OC)cc5[nH]4)c3)CC2)CC1 [Example 35.01.16, N-{4-[(4-{[4-(methoxymethyl)piperidin-1-yl]sulfonyl}piperazin-1-yl)methyl]pyridin-2-yl}-6-(5-methoxypyrimidin-4-yl)-1H-benzimidazol-2-amine]
0.062 | Cc1cc(-c2ccc3nc(Nc4cc(CN5CCN(C(=O)CC(F)(F)F)CC5)ccn4)[nH]c3c2)c(F)cn1 [Example 131.02, 3,3,3-trifluoro-1-{4-[(2-{[6-(5-fluoro-2-methylpyridin-4-yl)-1H-benzimidazol-2-yl]amino}pyridin-4-yl)methyl]piperazin-1-yl}propan-1-one]
0.0346 | CC(C)Nc1ncnc(-c2ccc3nc(Nc4cc(CN5CCN(C(=O)CC(F)(F)F)CC5)ccn4)[nH]c3c2)c1F [Example 193.02, 3,3,3-trifluoro-1-(4-{[2-({6-[5-fluoro-6-(propan-2-ylamino)pyrimidin-4-yl]-1H-benzimidazol-2-yl}amino)pyridin-4-yl]methyl}piperazin-1-yl)propan-1-one]
0.00595 | CC(c1ccnc(Nc2nc3ccc(-c4cnn(CC5CCC5)c4)c(F)c3[nH]2)c1)N1CCN(C(=O)CC(F)(F)F)CC1 (single isomer, unassigned) [Example 171.02, 1-(4-{(1R or 1S)-1-[2-({6-[1-(cyclobutylmethyl)-1H-pyrazol-4-yl]-7-fluoro-1H-benzimidazol-2-yl}amino)pyridin-4-yl]ethyl}piperazin-1-yl)-3,3,3-trifluoropropan-1-one]
0.0018 | O=C(CC(F)(F)F)N1CCN(Cc2ccnc(Nc3nc4ccc(-c5cc(N6CCC6)ncn5)cc4[nH]3)c2)CC1 [Example 147.02, 1-(4-{[2-({6-[6-(azetidin-1-yl)pyrimidin-4-yl]-1H-benzimidazol-2-yl}amino)pyridin-4-yl]methyl}piperazin-1-yl)-3,3,3-trifluoropropan-1-one]
0.00858 | CCOc1nccc(-c2ccc3nc(Nc4cc(CN5CCN(C(=O)C6CC6)CC5)ccn4)[nH]c3c2)n1 [Example 26.01.02, cyclopropyl{4-[(2-{[6-(2-ethoxypyrimidin-4-yl)-1H-benzimidazol-2-yl]amino}pyridin-4-yl)methyl]piperazin-1-yl}methanone]
0.645 | COc1cnccc1-c1ccc2nc(Nc3cc(CN4CCN(C(=O)C5CCC5)CC4)ccn3)[nH]c2c1OCC(C)C [Example 50.03, cyclobutyl{4-[(2-{[6-(3-methoxypyridin-4-yl)-7-(2-methylpropoxy)-1H-benzimidazol-2-yl]amino}pyridin-4-yl)methyl]piperazin-1-yl}methanone]
0.035 | COCCCS(=O)(=O)N1CCN(Cc2ccnc(Nc3nc4ccc(-c5ncncc5OC)cc4[nH]3)c2)CC1 [Example 35.01.10, N-[4-({4-[(3-methoxypropyl)sulfonyl]piperazin-1-yl}methyl)pyridin-2-yl]-6-(5-methoxypyrimidin-4-yl)-1H-benzimidazol-2-amine]
0.00669 | C[C@H](c1ccnc(Nc2nc3ccc(-c4cc(OCC(F)(F)F)ncn4)cc3[nH]2)c1)N1CCN(C(=O)CC(F)(F)F)CC1 [Example 119.02, 3,3,3-trifluoro-1-(4-{(1R)-1-[2-({6-[6-(2,2,2-trifluoroethoxy)pyrimidin-4-yl]-1H-benzimidazol-2-yl}amino)pyridin-4-yl]ethyl}piperazin-1-yl)propan-1-one]
0.685 | CCC(C)c1noc(-c2ccc3nc(Nc4cc(CN5CCN(C(=O)C6CC6)CC5)ccn4)[nH]c3c2)n1 (stereo not drawn) [Example 20.01, (4-{[2-({6-[3-(butan-2-yl)-1,2,4-oxadiazol-5-yl]-1H-benzimidazol-2-yl}amino)pyridin-4-yl]methyl}piperazin-1-yl)(cyclopropyl)methanone]
0.0189 | COc1cncnc1-c1ccc2nc(Nc3cc(CN4CCN(C(=O)CC(F)(F)F)CC4)ccn3)[nH]c2c1 [Example 35.01.01, 3,3,3-trifluoro-1-{4-[(2-{[6-(5-methoxypyrimidin-4-yl)-1H-benzimidazol-2-yl]amino}pyridin-4-yl)methyl]piperazin-1-yl}propan-1-one]
0.26 | O=C(C1CC1)N1CCN(Cc2ccnc(Nc3nc4ccc(-c5c(F)cncc5Cl)cc4[nH]3)c2)CC1 [Example 132.03, {4-[(2-{[6-(3-chloro-5-fluoropyridin-4-yl)-1H-benzimidazol-2-yl]amino}pyridin-4-yl)methyl]piperazin-1-yl}(cyclopropyl)methanone]
0.00826 | CC(C)Oc1cnccc1-c1ccc2nc(Nc3cc(CN4CCN(C(=O)CC5CC5)CC4)ccn3)[nH]c2c1 [Example 06.03, 2-cyclopropyl-1-(4-{[2-({6-[3-(propan-2-yloxy)pyridin-4-yl]-1H-benzimidazol-2-yl}amino)pyridin-4-yl]methyl}piperazin-1-yl)ethanone]
0.0014 | CC(c1ccnc(Nc2nc3ccc(-c4cnn(CC5CCC5)c4)c(Cl)c3[nH]2)c1)N1CCN(C(=O)CC(F)(F)F)CC1 (single isomer, unassigned) [Example 75.02, 1-(4-{(1R or 1S)-1-[2-({7-chloro-6-[1-(cyclobutylmethyl)-1H-pyrazol-4-yl]-1H-benzimidazol-2-yl}amino)pyridin-4-yl]ethyl}piperazin-1-yl)-3,3,3-trifluoropropan-1-one]
0.951 | Cc1ncnc(-c2ccc3nc(Nc4cc(CN5CCN(C(=O)C6CC6)CC5)ccn4)[nH]c3c2)c1C [Example 32.01, cyclopropyl{4-[(2-{[6-(5,6-dimethylpyrimidin-4-yl)-1H-benzimidazol-2-yl]amino}pyridin-4-yl)methyl]piperazin-1-yl}methanone]
0.0565 | O=C(CC1CC1)N1CCN(Cc2ccnc(Nc3nc4ccc(-c5nc(C6CC6)no5)cc4[nH]3)c2)CC1 [Example 17.03, 2-cyclopropyl-1-{4-[(2-{[6-(3-cyclopropyl-1,2,4-oxadiazol-5-yl)-1H-benzimidazol-2-yl]amino}pyridin-4-yl)methyl]piperazin-1-yl}ethanone]
0.0181 | Cc1noc(-c2ccc3nc(Nc4cc(C(C)N5CCN(C(=O)C6CC6(F)F)CC5)ccn4)[nH]c3c2)n1 (single isomer, unassigned) [Example 16.06.05, ((1RS)-2,2-difluorocyclopropyl){4-[(1R or 1S)-1-(2-{[6-(3-methyl-1,2,4-oxadiazol-5-yl)-1H-benzimidazol-2-yl]amino}pyridin-4-yl)ethyl]piperazin-1-yl}methanone]
0.0032 | O=C(CC(F)(F)F)N1CCN(Cc2ccnc(Nc3nc4ccc(-c5cc(C6CC6)ncn5)cc4[nH]3)c2)CC1 [Example 76.01, 1-{4-[(2-{[6-(6-cyclopropylpyrimidin-4-yl)-1H-benzimidazol-2-yl]amino}pyridin-4-yl)methyl]piperazin-1-yl}-3,3,3-trifluoropropan-1-one]
0.31 | Cc1noc(-c2ccc3nc(Nc4cc(CN5CCN(C(=O)c6cccnc6)CC5)ccn4)[nH]c3c2)n1 [Example 101.26, {4-[(2-{[6-(3-methyl-1,2,4-oxadiazol-5-yl)-1H-benzimidazol-2-yl]amino}pyridin-4-yl)methyl]piperazin-1-yl}(pyridin-3-yl)methanone]
0.0059 | CC(C)N(C)c1cc(-c2ccc3nc(Nc4cc(CN5CCN(C(=O)CC(F)(F)F)CC5)ccn4)[nH]c3c2)ncn1 [Example 153.02, 3,3,3-trifluoro-1-[4-({2-[(6-{6-[methyl(propan-2-yl)amino]pyrimidin-4-yl}-1H-benzimidazol-2-yl)amino]pyridin-4-yl}methyl)piperazin-1-yl]propan-1-one]
0.014 | CN(CC(F)(F)F)c1cc(-c2ccc3nc(Nc4cc(CN5CCN(C(=O)OC(C)(C)C)CC5)ccn4)[nH]c3c2)ncn1 [Example 146.01, tert-butyl 4-({2-[(6-{6-[methyl(2,2,2-trifluoroethyl)amino]pyrimidin-4-yl}-1H-benzimidazol-2-yl)amino]pyridin-4-yl}methyl)piperazine-1-carboxylate]
0.0121 | Cc1cc(-c2ccc3nc(Nc4cc(C(C)N5CCN(C(=O)CC(F)(F)F)CC5)ccn4)[nH]c3c2F)ncn1 (single isomer, unassigned) [Example 172.02, 3,3,3-trifluoro-1-{4-[(1R or 1S)-1-(2-{[7-fluoro-6-(6-methylpyrimidin-4-yl)-1H-benzimidazol-2-yl]amino}pyridin-4-yl)ethyl)piperazin-1-yl}propan-1-one]
0.29 | O=C(C1CC1)N1CCN(Cc2ccnc(Nc3nc4ccc(-c5cnc(Cl)cn5)cc4[nH]3)c2)CC1 [Example 140.03, {4-[(2-{[6-(5-chloropyrazin-2-yl)-1H-benzimidazol-2-yl]amino}pyridin-4-yl)methyl]piperazin-1-yl}(cyclopropyl)methanone]
0.00344 | CC(c1ccnc(Nc2nc3ccc(-c4ccncn4)cc3[nH]2)c1)N1CCN(C(=O)C2CCC2)CC1 (racemic) [Example 23.04.01, (rac)-cyclobutyl{4-[1-(2-{[6-(pyrimidin-4-yl)-1H-benzimidazol-2-yl]amino}pyridin-4-yl)ethyl]piperazin-1-yl}methanone]

Source: patent US10894784B2, “Heteroarylbenzimidazole compounds” (BAYER PHARMA AKTIENGESELLSCHAFT, priority 2015, dated 2021)
